Data as given in article PMC5924804, “Various Bee Pheromones Binding Affinity, Exclusive Chemosensillar Localization, and Key Amino Acid Sites Reveal the Distinctive Characteristics of Odorant-Binding Protein 11 in the Eastern Honey Bee, Apis cerana” (Frontiers in Physiology, 2018).
Where a chain is given by its changes, count along the chain named. Where two headings read alike, the source gives them in different places.

Tests used:
ASP2 = biological target: ASP2; parameters: method as in Li et al., 2013; settings: ref Li et al., 2013; cited from earlier work
ASP1 = biological target: ASP1; parameters: method as in Weng et al., 2013; settings: ref Weng et al., 2013; cited from earlier work
recombinant AcerOBP11 = recombinant AcerOBP11 (Apis cerana, UniProt S5CRW7); test: biochemical; type: binding
Description: (§1) The interactions were monitored by recording 1-NPN fluorescence upon addition of 1-NPN aliquots with excitation wavelength of 337 nm, and emission wavelength of 350–450 nm, where the slit was 5 nm. Titrations were carried out at 25°C with 1 μmol/L recombinant protein in PBS buffer. The fluorescence intensities at the maximum of emission wavelength (400~410 nm) were recorded to calculate Scatchard plots. The dissociation constant of the protein/1-NPN complex (K1−NPN) was calculated from Scatchard plots and applied in the equation below to estimate ligand binding affinity. All 23 ligands (1 mM) used in competition experiments were dissolved in spectrally pure grade methanol. Three independent measurements were taken for binding data.

[1] = biological target: T1, AcerOBP11m-Ile140 (Ile140Gly mutant) (Apis cerana, UniProt S5CRW7, I140G); test: Fluorescence competitive binding assay with 1-NPN, mutant AcerOBP11m-Ile140
T1 sequence (S5CRW7 1-142 I140G): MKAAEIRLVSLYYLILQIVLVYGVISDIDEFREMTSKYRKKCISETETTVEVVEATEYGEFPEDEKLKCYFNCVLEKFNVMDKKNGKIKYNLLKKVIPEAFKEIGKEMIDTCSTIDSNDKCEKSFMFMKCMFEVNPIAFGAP
Description: as §1, with “Fluorescence experiments on AcerOBP11 with N-phenyl-1-naphthylamine (1-NPN) were carried out on a Shimadzu RF-5301 spectrofluorimeter using a quartz cuvette in a right-angle configuration. The interactions” for “The interactions”
(§2) In order to verify whether the predicted interaction sites played a role in the binding of AcerOBP11 protein with ligands, site-directed mutagenesis of the corresponding amino acid was carried out. The mutant primers were designed by a partial overlap method before synthesis. The plasmids of pET-32a/AcerOBP11 wild-type were mutated by using fast mutagenesis system kit (Transgen, CN) and then transformed into BL21 (DE3) competent cells. The mutant plasmids of target sites were confirmed by sequencing, and then the mutant proteins were obtained by the induction and purification in the same method as AcerOBP11 wild-type above. The secondary structure of purified AcerOBP11 recombinant protein mutants was also analyzed using circular dichroism (CD) spectrometry (815 type, Jasco, JP). The mutant proteins were used for competitive fluorescence experiments with the six candidate ligands chosen from the previous section. The target amino acids and binding mode of AcerOBP11 binding with candidate ligands were acquired by comparing the dissociation constant KD between wild-type and mutant AcerOBP11. Statistical analysis data (mean ± SE) of KD values for the same mutated amino acid site were also used as one-way analysis of variance (ANOVA) followed by a mean LSD test.

[2] = biological target: T2, AcerOBP11m-Phe101 (Phe101Gly mutant) (Apis cerana, UniProt S5CRW7, F101G); test: Fluorescence competitive binding assay with 1-NPN, mutant AcerOBP11m-Phe101; settings: for change of KD compared with AcerOBP11-wt: AcerOBP11m-Phe101 vs wild-type
T2 sequence (S5CRW7 1-142 F101G): T1 sequence (S5CRW7 1-142 I140G) with F101G, G140I
Description: as §1, with “Fluorescence experiments on AcerOBP11 with N-phenyl-1-naphthylamine (1-NPN) were carried out on a Shimadzu RF-5301 spectrofluorimeter using a quartz cuvette in a right-angle configuration. The interactions” for “The interactions”
as §2

[3] = biological target: T3, AcerOBP11m-Ile97 (Ile97Gly mutant) (Apis cerana, UniProt S5CRW7, I97G); test: Fluorescence competitive binding assay with 1-NPN, mutant AcerOBP11m-Ile97
T3 sequence (S5CRW7 1-142 I97G): T1 sequence (S5CRW7 1-142 I140G) with I97G, G140I
Description: as §1, with “Fluorescence experiments on AcerOBP11 with N-phenyl-1-naphthylamine (1-NPN) were carried out on a Shimadzu RF-5301 spectrofluorimeter using a quartz cuvette in a right-angle configuration. The interactions” for “The interactions”
as §2

[4] = KD, calculated from IC50, KD = [IC50]/(1+[1-NPN]/K1-NPN), Table 1
[5] = [IC50], displacement of 1-NPN, 1 μmol/L protein in PBS, 25°C, Table 1
[6] = calculated from IC50, KD = [IC50]/(1+[1-NPN]/K1-NPN), Table 1, read-out: KD
[7] = AcerOBP11m-Ile140, Table S4, mean ± SE, read-out: KD
[8] = AcerOBP11m-Ile140, Table S4, mean ± SE, read-out: [IC50]
[9] = AcerOBP11m-Phe101, Table S4, mean ± SE, read-out: KD
[10] = AcerOBP11m-Phe101, Table S4, mean ± SE, read-out: [IC50]
[11] = AcerOBP11m-Ile97, Table S4, mean ± SE, read-out: KD
[12] = AcerOBP11m-Ile97, Table S4, mean ± SE, read-out: [IC50]
[13] = KD, AcerOBP11-wt, Table S4, mean ± SE
[14] = [IC50], AcerOBP11-wt, Table S4, mean ± SE
[15] = displacement of 1-NPN, 1 μmol/L protein in PBS, 25°C, Table 1, read-out: [IC50]

Sequence of recombinant AcerOBP11 (S5CRW7 entry or part of it): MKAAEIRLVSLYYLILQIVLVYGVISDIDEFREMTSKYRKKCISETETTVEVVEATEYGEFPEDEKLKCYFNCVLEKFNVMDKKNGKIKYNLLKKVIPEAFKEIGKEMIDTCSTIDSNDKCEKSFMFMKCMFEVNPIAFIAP

SMILES: CC(=O)/C=C/C1=C(C)CCCC1(C)C [β- Ionone]
- Kd (ASP2): 5.14 µM
- Kd (ASP1): 14.7 µM
- Kd (recombinant AcerOBP11; [4]): 3.79 µM
- IC50 (recombinant AcerOBP11; [5]): 21.1 µM

SMILES: O=CCc1ccccc1 [Phenylacetaldehyde]
- IC50 (recombinant AcerOBP11): 21.6 µM
- Kd (recombinant AcerOBP11): 3.75 µM

SMILES: CC12CCC(CC1)C(C)(C)O2 [1,8-Cineole]
- IC50 (recombinant AcerOBP11): 21.1 µM
- Kd (recombinant AcerOBP11; [6]): 4.3 µM

SMILES: CCCCCCCC/C=C\CCCCCCCC(=O)OC [Methyl oleate]
- relative fluorescence of 1-NPN (recombinant AcerOBP11; ligand 1-11 μmol/L): ≥ 50%

SMILES: CC(C)=CCC/C(C)=C\CO [Nerol]
- Kd (recombinant AcerOBP11; [4]): 6.13 µM
- IC50 (recombinant AcerOBP11; [5]): 33.9 µM

SMILES: CC1CCC(C(C)C)C(O)C1 (racemic) [DL-Menthol]
- IC50 (recombinant AcerOBP11): 26.2 µM
- Kd (recombinant AcerOBP11): 4.34 µM

SMILES: CCCCCCCCCCCCCC(=O)O [Myristic acid]
- IC50 (recombinant AcerOBP11): 45.2 µM
- Kd (recombinant AcerOBP11): 7.71 µM

SMILES: COC(=O)c1ccccc1O [Methyl salicylate]
- IC50 (recombinant AcerOBP11): 40 µM
- Kd (recombinant AcerOBP11): 6.83 µM

SMILES: CCCCCCCCCCCCCCCC(=O)OCC [Ethyl palmitate]
- Kd [1, 7]: 5.34 ± 0.167 µM
- IC50 [1, 8]: 16.6 ± 0.52 µM
- Kd [2, 9]: 3.89 ± 0.143 µM
- IC50 [2, 10]: 20.3 ± 0.747 µM
- change of KD compared with AcerOBP11-wt [2]: did not observe significant increases
- Kd [3, 11]: 1.86 ± 0.022 µM
- IC50 [3, 12]: 6.61 ± 0.076 µM
- Kd (recombinant AcerOBP11; [13]): 3.788 ± 0.012 µM
- Kd (recombinant AcerOBP11; [4]): 3.82 µM
- IC50 (recombinant AcerOBP11; [14]): 24.39 ± 0.076 µM
- IC50 (recombinant AcerOBP11; [5]): 19.4 µM

SMILES: CCCCCCCCCCCCCCCC(=O)OC [Methyl palmitate]
- Kd (recombinant AcerOBP11; [6]): 4.38 µM
- IC50 (recombinant AcerOBP11; [15]): 21 µM

SMILES: C=CCc1ccc(OC)c(OC)c1 [4-Allylveratrole]
- Kd [1, 7]: 4.28 ± 0.279 µM
- IC50 [1, 8]: 22.5 ± 1.46 µM
- Kd [2, 9]: 4.84 ± 0.092 µM
- IC50 [2, 10]: 20.1 ± 0.381 µM
- change of KD compared with AcerOBP11-wt [2]: did not observe significant increases
- Kd [3, 11]: 5.83 ± 0.06 µM
- IC50 [3, 12]: 25.823 ± 0.022 µM
- change of KD compared with AcerOBP11-wt ([3]; AcerOBP11m-Ile97 vs wild-type): significantly increased
- Kd (recombinant AcerOBP11; [4]): 2.67 µM
- IC50 (recombinant AcerOBP11; [14]): 21 ± 0.22 µM
- IC50 (recombinant AcerOBP11; [5]): 16.8 µM

SMILES: CC(=O)OCCC(C)C [Isoamyl acetate]
- Kd [1, 7]: 3.99 ± 0.221 µM
- IC50 [1, 8]: 12.9 ± 0.697 µM
- increase of KD compared with AcerOBP11-wt ([1]; AcerOBP11m-Ile140 vs wild-type, p < 0.01): 1.8 fold
- Kd [2, 9]: 2.61 ± 0.063 µM
- IC50 [2, 10]: 10.7 ± 0.26 µM
- change of KD compared with AcerOBP11-wt [2]: did not observe significant increases
- Kd [3, 11]: 4.544 ± 0.022 µM
- IC50 [3, 12]: 17.75 ± 0.144 µM
- change of KD compared with AcerOBP11-wt ([3]; AcerOBP11m-Ile97 vs wild-type): significantly increased
- Kd (recombinant AcerOBP11; [4]): 3.3 µM
- IC50 (recombinant AcerOBP11; [14]): 16.88 ± 0.144 µM
- IC50 (recombinant AcerOBP11; [5]): 24 µM

SMILES: CC(C)=CCC/C(C)=C/CO [Geraniol]
- Kd (recombinant AcerOBP11; [4]): 8.58 µM
- IC50 (recombinant AcerOBP11; [5]): 39.9 µM

SMILES: CCCCCC(C)=O [2-Heptanone]
- Kd (recombinant AcerOBP11; [6]): 4.32 µM
- IC50 (recombinant AcerOBP11; [15]): 31.1 µM

SMILES: CC(=O)CCCCC/C=C/C(=O)O [9-ODA, (E)-9-oxo-2-decanoic acid]
- Kd (recombinant AcerOBP11; [6]): 6.67 µM
- IC50 (recombinant AcerOBP11; [15]): 36.9 µM
- Kd (recombinant AcerOBP11; read-out: KD): < 10 µM

SMILES: C=CC(C)(O)CCC=C(C)C (stereo not drawn) [Linalool]
- IC50 (recombinant AcerOBP11): 55 µM
- Kd (recombinant AcerOBP11): 9.53 µM

SMILES: CCCCCCO [n-hexanol]
- Kd [1, 7]: 3.19 ± 0.076 µM
- IC50 [1, 8]: 11.8 ± 0.283 µM
- Kd [2, 9]: 2.321 ± 0.02 µM
- IC50 [2, 10]: 14.26 ± 0.124 µM
- Kd [3, 11]: 10.1 ± 0.456 µM
- IC50 [3, 12]: 33.4 ± 0.785 µM
- change of KD compared with AcerOBP11-wt ([3]; AcerOBP11m-Ile97 vs wild-type): significantly increased
- increase of KD compared with AcerOBP11-wt ([3]; AcerOBP11m-Ile97 vs wild-type, p < 0.01): 3.60 fold
- Kd (recombinant AcerOBP11; [13]): 2.79 ± 0.104 µM
- Kd (recombinant AcerOBP11; [4]): 2.79 µM
- IC50 (recombinant AcerOBP11; [14]): 21.1 ± 0.785 µM

SMILES: COC(=O)c1ccc(O)cc1 [HOB, methyl p-hydroxybenzoate]
- IC50 [1]: 5.57 ± 0.114 µM
- Kd [1]: 1.91 ± 0.039 µM
- IC50 [2]: 6.257 ± 0.025 µM
- Kd [2]: 1.447 ± 0.006 µM
- change of KD compared with AcerOBP11-wt [2]: did not observe significant increases
- IC50 [3]: 6.09 ± 0.156 µM
- Kd [3]: 1.48 ± 0.045 µM
- Kd (recombinant AcerOBP11; KD): < 10 µM
- Kd (recombinant AcerOBP11; [4]): 1.35 µM
- IC50 (recombinant AcerOBP11; [14]): 8.31 ± 0.156 µM
- IC50 (recombinant AcerOBP11; [5]): 8.33 µM

SMILES: CC(C)=CCC/C(C)=C/CC/C(C)=C/CO [Farnesol]
- Kd [1, 7]: 4.93 ± 0.133 µM
- IC50 [1, 8]: 19.9 ± 0.536 µM
- Kd [2, 9]: 3.14 ± 0.072 µM
- IC50 [2, 10]: 17.8 ± 0.411 µM
- Kd [3, 11]: 5.24 ± 0.069 µM
- IC50 [3, 12]: 21.3 ± 0.237 µM
- change of KD compared with AcerOBP11-wt ([3]; AcerOBP11m-Ile97 vs wild-type): significantly increased
- Kd (recombinant AcerOBP11; [4]): 4.71 µM
- IC50 (recombinant AcerOBP11; [14]): 20.6 ± 0.237 µM
- IC50 (recombinant AcerOBP11; [5]): 32.2 µM

SMILES: CC1=CCC2C(C1)C2(C)C (stereo not drawn) [3-Carene]
- Kd (recombinant AcerOBP11; [6]): 9.79 µM

SMILES: Cc1ccc(C=O)cc1C [3,4-Dimethylbenzaldehyde]
- Kd (recombinant AcerOBP11; [6]): 4.76 µM
- IC50 (recombinant AcerOBP11; [15]): 36.7 µM

SMILES: C=CC(=C)CCC=C(C)C [Myrcene]
- Kd (recombinant AcerOBP11; [6]): 10.7 µM
- IC50 (recombinant AcerOBP11; [15]): 45.7 µM
